The subject of experiment [1] is Human whole blood, IL-6 levels after TLR2 agonist lipoteichoic acid. Description: IRAK4 Whole Blood Assay. It counts as cell-based. To be noted: compounds 60 minutes at 37° C., lipoteichoic acid 10 μg/mL for 5 hours. As for the experimental part:
IRAK4 Whole Blood Assay Human whole blood containing the anti-coagulant ACD-A was plated in 384-well plate (25 μL/well) and incubated with compounds for 60 minutes at 37° C. in a 5% CO2 incubator. The blood was stimulated with a TLR2 agonist, 10 μg/mL final concentration of lipoteichoic acid (Invivogen, San Diego, CA) in 25 μL RPMI (Gibco) for 5 hours in a 5% CO2 incubator. At the end of the incubation, plates were centrifuged at 2300 rpm for 5 minutes. Supernatants were harvested and analyzed for IL-6 levels by Flow Cytometry beads assay (BD Biosciences, San Jose, CA).

Experiment [2] concerns the target T1, IRAK4 (Homo sapiens, UniProt Q9NWZ3).
T1 sequence (Q9NWZ3 1-460): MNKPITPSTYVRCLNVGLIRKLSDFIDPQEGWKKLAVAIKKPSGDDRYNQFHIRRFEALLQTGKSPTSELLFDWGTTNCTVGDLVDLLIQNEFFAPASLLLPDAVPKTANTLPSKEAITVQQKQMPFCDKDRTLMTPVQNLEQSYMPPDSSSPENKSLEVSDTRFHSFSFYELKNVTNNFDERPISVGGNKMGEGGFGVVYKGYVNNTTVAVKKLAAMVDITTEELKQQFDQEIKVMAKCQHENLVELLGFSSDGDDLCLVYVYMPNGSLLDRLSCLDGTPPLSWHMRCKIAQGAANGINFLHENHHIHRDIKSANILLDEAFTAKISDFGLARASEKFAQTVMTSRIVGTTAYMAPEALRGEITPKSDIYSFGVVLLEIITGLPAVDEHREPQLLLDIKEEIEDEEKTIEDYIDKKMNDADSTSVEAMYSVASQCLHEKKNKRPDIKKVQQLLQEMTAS
Description: IRAK4 Inhibition Assay. Format: biochemical. As to conditions: ATP 500 μM; FL-IPTSPITTTYFFFKKK peptide […]; IRAK4 0.6 nM; 60 min room temperature; Caliper LABCHIP 3000. Here is the method:
The assays were performed in U-bottom 384-well plates. […] The reaction was initiated by the combination of IRAK4 with substrates and test compounds. The reaction mixture was incubated at room temperature for 60 min. and terminated by adding 45 μL of 35 mM EDTA to each sample. The reaction mixture was analyzed on the Caliper LABCHIP® 3000 (Caliper, Hopkinton, MA) by electrophoretic separation of the fluorescent substrate and phosphorylated product. […] The final concentrations of reagents in the assays are ATP, 500 μM; FL-[…] peptide 1.5 μM; IRAK4, 0.6 nM; and DMSO, 1.6%.

Data on twelve compounds can be found in US12286428B2 (BRISTOL-MYERS SQUIBB COMPANY, priority 2019, dated 2025).

One may read the IC50 as the midpoint of a concentration-inhibition curve. In the case of `CC[C@H]1CC(=O)N[C@@H]1COc1cccc2cc(C(N)=O)c3nccn3c12` [Example 3, 9-(((2S,3S)-3-ethyl-5-oxopyrrolidin-2-yl)methoxy)imidazo[1,2-a]quinoline-4-carboxamide], the IC50 is 152 nM in experiment [1] and 1.7 nM in experiment [2].

As to `CC[C@H]1[C@@H](COc2cccc3cc(C(N)=O)c4nccn4c23)NC(=O)[C@@H]1F` [Example 4, 9-(((2S,3S,4R)-3-ethyl-4-fluoro-5-oxopyrrolidin-2-yl)methoxy)imidazo[1,2-a]quinoline-4-carboxamide], the IC50 in experiment [1] was 593 nM; in experiment [2] it was 2.6 nM.

Regarding `CC[C@@H]1[C@H](F)C(=O)N[C@@H]1COc1cccc2cc(C(N)=O)c3nccn3c12` [Example 5, 9-(((2S,3S,4S)-3-ethyl-4-fluoro-5-oxopyrrolidin-2-yl)methoxy)imidazo[1,2-a]quinoline-4-carboxamide], the IC50 in experiment [1] turned out to be 280 nM; in experiment [2], 1.3 nM.

Consider `CC[C@H]1[C@@H](COc2cccc3cc(C(N)=O)c4nccn4c23)NC(=O)C1(F)F` [Example 10, 9-(((2S,3S)-3-ethyl-4,4-difluoro-5-oxopyrrolidin-2-yl)methoxy)imidazo[1,2-a]quinoline-4-carboxamide], for which the IC50 in experiment [1] was determined as 1390 nM; in experiment [2] it was 1.9 nM.

In the case of `CC[C@@H]1CC(=O)N[C@@H]1COc1cccc2cc(C(N)=O)c3nc(C)cn3c12` [Example 11, 9-(((2S,3R)-3-ethyl-5-oxopyrrolidin-2-yl)methoxy)-2-methylimidazo[1,2-a]quinoline-4-carboxamide], the results for the IC50 in experiment [1] and in experiment [2] were 3460 nM and 3.4 nM, respectively.

`CC[C@@H]1[C@H](F)C(=O)N[C@@H]1COc1cccc2cc(C(N)=O)c3nc(C)cn3c12` [Example 12, 9-(((2S,3S,4S)-3-ethyl-4-fluoro-5-oxopyrrolidin-2-yl)methoxy)-2-methylimidazo[1,2-a]quinoline-4-carboxamide]: the figures for the IC50 in experiment [1] and in experiment [2] were 10000 nM and 2.2 nM, respectively.

Turning to `CC[C@@H]1CC(=O)N[C@@H]1COc1ccc(F)c2cc(C(N)=O)c3nccn3c12` [Example 14, 9-(((2S,3R)-3-ethyl-5-oxopyrrolidin-2-yl)methoxy)-6-fluoroimidazo[1,2-a]quinoline-4-carboxamide], the IC50 in experiment [1] worked out at 557 nM; in experiment [2] it was 1 nM.

`CC[C@@H]1[C@H](F)C(=O)N[C@@H]1COc1ccc(F)c2cc(C(N)=O)c3nccn3c12` [Example 15, 9-(((2S,3S,4S)-3-ethyl-4-fluoro-5-oxopyrrolidin-2-yl)methoxy)-6-fluoroimidazo[1,2-a]quinoline-4-carboxamide]: the IC50 was determined as 2650 nM in experiment [1] and 8.2 nM in experiment [2].

Regarding `CC[C@@H]1CC(=O)N[C@@H]1COc1nccc2cc(C(N)=O)c3nccn3c12` [Example 16, 1-(((2S,3R)-3-ethyl-5-oxopyrrolidin-2-yl)methoxy)imidazo[1,2-a][1,7]naphthyridine-6-carboxamide], the IC50 in experiment [1] is 1520 nM; in experiment [2] it was 11 nM.

Turning to `CC[C@@H]1[C@H](F)C(=O)N[C@@H]1COc1nccc2cc(C(N)=O)c3nccn3c12` [Example 17, 1-(((2S,3S,4S)-3-ethyl-4-fluoro-5-oxopyrrolidin-2-yl)methoxy)imidazo[1,2-a][1,7]naphthyridine-6-carboxamide], the values for the IC50 in experiment [1] and in experiment [2] were 94 nM and 4.7 nM, respectively.

On to `CC[C@@H]1CC(=O)N[C@@H]1COc1nccc2cc(C(N)=O)c3nc(C)cn3c12` [Example 18, 1-(((2S,3R)-3-ethyl-5-oxopyrrolidin-2-yl)methoxy)-8-methylimidazo[1,2-a][1,7]naphthyridine-6-carboxamide], for which the IC50 in experiment [1] is 20000 nM; in experiment [2] it was 19.7 nM.

Consider `CC[C@@H]1[C@H](F)C(=O)N[C@@H]1COc1nccc2cc(C(N)=O)c3nc(C)cn3c12` [Example 19, 1-(((2S,3S,4S)-3-ethyl-4-fluoro-5-oxopyrrolidin-2-yl)methoxy)-8-methylimidazo[1,2-a][1,7]naphthyridine-6-carboxamide], for which the IC50 turned out to be 485 nM in experiment [1] and 3.2 nM in experiment [2].
